Source: patent US20090069300A1, “ISOQUINOLINYL AND ISOINDOLINYL DERIVATIVES AS HISTAMINE-3 ANTAGONISTS” (Wyeth, priority 2007, published 2009)
Where a name gives a salt, the structure may show the parent alone.

What follows are molecules tested against T1, Human Histamine H3 Receptor (Homo sapiens, UniProt Q9Y5N1) (assay: Methyl histamine binding in human histamine H3 receptor cell line). Details: not given.
T1 construct: expressed in transfected cells; host or cells: HEK293T (stably transfected; membranes prepared from the cells)
Method: Evaluation of Methyl Histamine Binding in Human Histamine H3 Receptor Cell Line
The affinity of test compounds for the histamine 3 (H3) receptor is evaluated in the following manner. […] Cells are scraped from the plate, transferred to centrifuge tubes, washed one time in PBS by centrifugation in a Sorvall RT7 Plus centrifuge (2000 rpm 10 minutes, 4° C.). The resulting pellets are stored at −80° C. until ready for use. Cells are re-suspended in buffer (50 mM Tris pH=7.5) and placed in a Dounce homogenizer, douncing ten times to homogenize cells. The homogenate is spun down by centrifugation (Sorvall RT7 Plus, 1800 rpm 10 minutes, 4° C.). The supernatant is placed in a Corex tube and spun down by centrifugation (Sorvall RC 5c Plus, 17,000 rpm 20 minutes, 4° C.). The pellet is resuspended in buffer (50 mM Tris, pH 7.5). Protein concentration (ug/ul) is determined using the Micro-BCA Protein Determination. The binding assay is set up in a 96 well microtiter plate in a total volume of 250 uL. Non-specific binding is determined in the presence of 10 uM clobenpropit. The final radioligand concentration is 1 nM. The test compound is serially diluted using the Beckman Biomek2000 to a final approximate range of 100 uM to 100 pM. Membranes are suspended in buffer, homogenized in 2 bursts of ten seconds using a Vitris mechanical homogenizer set at power setting 5. Ten μg of membranes are added to each well. Following a one hour incubation at 30° C., the reaction is terminated by the addition of ice cold buffer and rapid filtration with a Packard Filtermate Harvester through a GF/B filter pre-soaked with 1% PEI for one hour. The plate is dried for one hour at 37° C. and 60 μL Microscint Scintillant is added to each well. The CPM per well is measured on a Packard Top Count NXT. Ki values are determined in nM. […] CPM values are expressed as % specific binding and plotted vs compound concentration. A curve is fitted using a four-parameter logistic fit and the IC50 value is determined. The Ki is calculated from this using the Cheng-Prusoff equation: […]=IC50/1+(L/Kd) where L=concentration of free radioligand used in the assay, and Kd is the dissociation constant of the radioligand for the receptor. L is determined for each experiment by counting an aliquot of the diluted radioligand (corresponding to that added to each well) and the Kd has previously been determined under identical conditions for this cell line/radioligand.

T1 sequence (Q9Y5N1 whole entry): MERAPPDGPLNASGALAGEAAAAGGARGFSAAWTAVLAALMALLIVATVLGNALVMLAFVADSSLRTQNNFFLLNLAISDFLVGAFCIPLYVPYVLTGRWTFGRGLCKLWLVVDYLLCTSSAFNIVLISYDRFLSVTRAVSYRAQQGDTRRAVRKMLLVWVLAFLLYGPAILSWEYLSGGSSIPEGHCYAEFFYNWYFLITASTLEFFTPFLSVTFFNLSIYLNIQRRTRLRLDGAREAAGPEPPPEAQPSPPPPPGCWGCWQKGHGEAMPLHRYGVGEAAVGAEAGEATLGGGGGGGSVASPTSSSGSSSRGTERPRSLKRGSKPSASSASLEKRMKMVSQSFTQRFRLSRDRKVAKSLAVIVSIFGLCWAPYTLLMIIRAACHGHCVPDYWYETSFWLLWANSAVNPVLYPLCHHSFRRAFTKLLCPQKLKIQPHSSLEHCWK

Structure (SMILES) | Ki [nM]
O=C(NCCCl)c1ccc(-c2ccc3c(c2)CCN(CCN2CCCC2)C3=O)cc1 [Example 123, N-(2-chloroethyl)-4-[1-oxo-2-(2-pyrrolidin-1-ylethyl)-1,2,3,4-tetrahydroisoquinolin-6-yl]benzamide] | < 10

Same assay, conditions: read-out: H3 Binding Ki

Structure (SMILES) | Ki [nM]
NC(=O)c1ccc(Oc2ccc3c(c2)CCN(CCN2CCCC2)C3=O)cc1 [Example 91, 4-{[1-oxo-2-(2-pyrrolidin-1-ylethyl)-1,2,3,4-tetrahydroisoquinolin-6-yl]oxy}benzamide] | 10.1 to 25
CN(C)C(=O)c1ccc(Oc2ccc3c(c2)CCN(CCN2CCCC2)C3=O)cc1 [Example 95, N,N-dimethyl-4-{[1-oxo-2-(2-pyrrolidin-1-ylethyl)-1,2,3,4-tetrahydroisoquinolin-6-yl]oxy}benzamide] | 25.1 to 50
CCN(CC)C(=O)c1ccc(Oc2ccc3c(c2)CCN(CCN2CCCC2)C3=O)cc1 [Example 96, N,N-diethyl-4-{[1-oxo-2-(2-pyrrolidin-1-ylethyl)-1,2,3,4-tetrahydroisoquinolin-6-yl]oxy}benzamide] | 25.1 to 50
CNC(=O)c1ccc(Oc2ccc3c(c2)CCN(CCN2CCCC2)C3=O)nc1 [Example 101, N-Methyl-6-(1-oxo-2-(2-(pyrrolidin-1-yl)ethyl)-1,2,3,4-tetrahydro-isoquinolin-6-yloxy)nicotinamide hydrochloride] | 25.1 to 50
O=C1c2ccc(Cn3cnc4ccccc43)cc2CN1CCN1CCCC1 [Example 112, 5-(1H-benzimidazol-1-ylmethyl)-2-(2-pyrrolidin-1-ylethyl)iso-indolin-1-one] | 25.1 to 50
CNC(=O)c1ccc(-c2ccc3c(c2)CN(CCN2CCC[C@H]2C)C3=O)cc1 [Example 118, N-methyl-4-(2-{2-[(2R)-2-methylpyrrolidin-1-yl]ethyl}-1-oxo-2,3-dihydro-1H-isoindol-5-yl)benzamide] | 50.1 to 100
O=C(c1ccc(-c2ccc3c(c2)CCN(CCN2CCCC2)C3=O)cc1)N1CCOCC1 [Example 122, 6-[4-(morpholin-4-ylcarbonyl)phenyl]-2-(2-pyrrolidin-1-ylethyl)-3,4-dihydroisoquinolin-1(2H)-one] | < 10
CCN(C)C(=O)c1ccc(-c2ccc3c(c2)CCN(CCN2CCCC2)C3=O)cc1 [Example 124, N-ethyl-N-methyl-4-[1-oxo-2-(2-pyrrolidin-1-ylethyl)-1,2,3,4-tetrahydroisoquinolin-6-yl]benzamide] | < 10
O=C(NCc1ccco1)c1ccc(-c2ccc3c(c2)CCN(CCN2CCCC2)C3=O)cc1 [Example 125, N-(2-furylmethyl)-4-[1-oxo-2-(2-pyrrolidin-1-ylethyl)-1,2,3,4-tetrahydroisoquinolin-6-yl]benzamide] | < 10
COC[C@H](C)NC(=O)c1ccc(-c2ccc3c(c2)CCN(CCN2CCCC2)C3=O)cc1 [Example 126, N-[(1S)-2-methoxy-1-methylethyl]-4-[1-oxo-2-(2-pyrrolidin-1-ylethyl)-1,2,3,4-tetrahydroisoquinolin-6-yl]benzamide] | < 10
COC1CCN(C(=O)c2ccc(-c3ccc4c(c3)CCN(CCN3CCCC3)C4=O)cc2)C1 (stereo not drawn) [Example 127, 6-{4-[(3-methoxypyrrolidin-1-yl)carbonyl]phenyl}-2-(2-pyrrolidin-1-ylethyl)-3,4-dihydroisoquinolin-1(2H)-one] | < 10
COC[C@@H]1CCCN1C(=O)c1ccc(-c2ccc3c(c2)CCN(CCN2CCCC2)C3=O)cc1 [Example 128, 6-(4-{[(2S)-2-(methoxymethyl)pyrrolidin-1-yl]carbonyl}phenyl)-2-(2-pyrrolidin-1-ylethyl)-3,4-dihydroisoquinolin-1(2H)-one] | < 10
O=C(Nc1nccs1)c1ccc(-c2ccc3c(c2)CCN(CCN2CCCC2)C3=O)cc1 [Example 130, 4-[1-oxo-2-(2-pyrrolidin-1-ylethyl)-1,2,3,4-tetrahydroisoquinolin-6-yl]-N-1,3-thiazol-2-ylbenzamide] | < 10
O=C(c1cc(-c2ccc3c(c2)CCN(CCN2CCCC2)C3=O)ccc1F)N1CCCC1 [Example 131, 6-[4-fluoro-3-(pyrrolidin-1-ylcarbonyl)phenyl]-2-(2-pyrrolidin-1-ylethyl)-3,4-dihydroisoquinolin-1-(2H)-one] | < 10
CN(C)C(=O)c1cc(-c2ccc3c(c2)CCN(CCN2CCCC2)C3=O)ccc1F [Example 132, 2-fluoro-N,N-dimethyl-5-[1-oxo-2-(2-pyrrolidin-1-ylethyl)-1,2,3,4-tetrahydroisoquinolin-6-yl]benzamide] | < 10
O=C(c1ccc(-c2ccc3c(c2)CCN(CCN2CCCC2)C3=O)cc1Cl)N1CCCC1 [Example 134, 6-[3-chloro-4-(pyrrolidin-1-ylcarbonyl)phenyl]-2-(2-pyrrolidin-1-ylethyl)-3,4-dihydroisoquinolin-1(2H)-one] | < 10
CN(C)C(=O)c1ccc(-c2ccc3c(c2)CCN(CCN2CCCC2)C3=O)c(F)c1 [Example 137, 3-fluoro-N,N-dimethyl-4-[1-oxo-2-(2-pyrrolidin-1-ylethyl)-1,2,3,4-tetrahydroisoquinolin-6-yl]benzamide] | < 10

More lines, now with the values ahead:

Ki [nM] | Structure (SMILES)
< 10 | C[C@@H]1CCCN1CCN1CCc2cc(-c3ccc(C(=O)NC4CCCC4)cc3)ccc2C1=O [Example 80, N-cyclopentyl-4-(2-{2-[(2R)-2-methylpyrrolidin-1-yl]ethyl}-1-oxo-1,2,3,4-tetrahydroisoquinolin-6-yl)benzamide]
< 10 | C[C@H]1CCCN1C(=O)c1ccc(-c2ccc3c(c2)CCN(CCN2CCCC2)C3=O)cc1 [Example 81, 6-(4-{[(2S)-2-methylpyrrolidin-1-yl]carbonyl}phenyl)-2-(2-pyrrolidin-1-ylethyl)-3,4-dihydroisoquinolin-1(2H)-one]
< 10 | C[C@@H]1CCCN1C(=O)c1ccc(-c2ccc3c(c2)CCN(CCN2CCCC2)C3=O)cc1 [Example 82, 6-(4-{[(2R)-2-methylpyrrolidin-1-yl]carbonyl}phenyl)-2-(2-pyrrolidin-1-ylethyl)-3,4-dihydroisoquinolin-1(2H)-one]
< 10 | CNC(=O)c1ccc(-c2ccc3c(c2)C(=O)N(CCN2CCC[C@H]2C)CC3)cc1 [Example 83, N-methyl-4-(2-{2-[(2R)-2-methylpyrrolidin-1-yl]ethyl}-1-oxo-1,2,3,4-tetrahydroiso-quinolin-7-yl)benzamide]
< 10 | CCNC(=O)c1ccc(-c2ccc3c(c2)C(=O)N(CCN2CCC[C@H]2C)CC3)cc1 [Example 84, N-ethyl-4-(2-{2-[(2R)-2-methylpyrrolidin-1-yl]ethyl}-1-oxo-1,2,3,4-tetrahydroiso-quinolin-7-yl)benzamide]
< 10 | CC(C)NC(=O)c1ccc(-c2ccc3c(c2)C(=O)N(CCN2CCC[C@H]2C)CC3)cc1 [Example 85, N-isopropyl-4-(2-{2-[(2R)-2-methylpyrrolidin-1-yl]ethyl}-1-oxo-1,2,3,4-tetrahydroiso-quinolin-7-yl)benzamide]
< 10 | C[C@@H]1CCCN1CCN1CCc2ccc(-c3ccc(C(=O)N4CCCC4)cc3)cc2C1=O [Example 86, 2-{2-[(2R)-2-methylpyrrolidin-1-yl]ethyl}-7-[4-(pyrrolidin-1-ylcarbonyl)phenyl]-3,4-dihydroisoquinolin-1(2H)-one]
< 10 | O=C(c1ccc(Oc2ccc3c(c2)CCN(CCN2CCCC2)C3=O)cc1)N1CCCC1 [Example 98, 6-[4-(pyrrolidin-1-ylcarbonyl)phenoxy]-2-(2-pyrrolidin-1-ylethyl)-3,4-dihydroiso-quinolin-1(2H)-one]
< 10 | CON(C)C(=O)c1ccc(-c2ccc3c(c2)CCN(CCN2CCCC2)C3=O)cc1 [Example 102, N-methoxy-N-methyl-4-(1-oxo-2-(2-(pyrrolidin-1-yl)ethyl)-1,2,3,4-tetrahydroisoqui-nolin-6-yl)benzamide]
< 10 | O=C1c2ccc(-n3cnc4ccccc43)cc2CCN1CCN1CCCC1 [Example 108, 6-(1H-benzimidazol-1-yl)-2-(2-pyrrolidin-1-ylethyl)-3,4-dihydroisoquinolin-1(2H)-one Fumarate Salt]
< 10 | C[C@@H]1CCCN1CCN1CCc2cc(OCc3ccc(C#N)cc3)ccc2C1=O [Example 120, (R)-4-((2-(2-(2-Methylpyrrolidin-1-yl)ethyl)-1-oxo-1,2,3,4-tetra-hydroisoquinolin-6-yloxy)methyl)benzonitrile hydrochloride]
< 10 | O=C(NCc1cccs1)c1ccc(-c2ccc3c(c2)CCN(CCN2CCCC2)C3=O)cc1 [Example 121, 4-[1-oxo-2-(2-pyrrolidin-1-ylethyl)-1,2,3,4-tetrahydroisoquinolin-6-yl]-N-(2-thienylmethyl)benzamide]
